According to publication PMC12388300, “The Chelating Abilities of Tertiary Amines with N-O-Donors Towards Cu(II) Ions and the Catalytic Properties of the Resulting Complexes” (Molecules, 2025):
Marks after values point to notes of the source that are not given here.

Legend:
[1] = Cyclic voltammetry of the Cu(II)/Cu(I) couple; assay type: physicochemical; conditions: for ΔE: Epc − Epa; for ΔE / │ia/ic│ / E1/2: PBS pH 7.8; for │ia/ic│: peak current ratio; for E1/2 / Epa / Epc: vs NHE; for E1/2: E1/2=(Epc+Epa)/2; for Epa / Epc: PBS 10 mM, 150 mM NaCl, pH 7.8, 0.25 mM complex
Method: To assess this behavior, the corresponding redox potentials were measured by cyclic voltammetry (CV), offering key insights into the electron-transfer properties of the complexes. The metal ion redox potential should ideally lie between the potential for oxidation (−0.16 V vs. NHE) (Equation (1)) and reduction (0.89 V vs. NHE) of superoxide radicals (Equation (2)).(1) O2∙−→O2+e^− (2) O2∙−+e^−+H^+→H2O2
The key electrochemical parameters extracted from the cyclic voltammograms are summarized in Table 3, highlighting a similar redox behavior of the complexes with both ligands. However, the nature of the anion appears to influence the properties of the mononuclear species formed in situ, compared with the isolated complexes.
Cyclic voltammetry experiments were carried out using a BAS Cell C3 EC-epsilon potentiostat equipped with a conventional three-electrode system consisting of a glassy carbon working electrode (3 mm diameter, geometric surface 7 mm^2), a platinum wire counter electrode (CE), and a silver/silver chloride reference electrode (Ag/AgCl, 3 M KCl). Voltammograms were recorded in phosphate-buffered saline (PBS; 10 mM, 150 mM NaCl, pH 7.8) containing 0.25 mM of the complex. The measurements were performed within a potential window from −600 mV to +400 mV, employing various scan rates (50 mV/s, 100 mV/s, 200 mV/s, 400 mV/s, and 800 mV/s).

[2] = SOD activity, indirect cytochrome C (CytC) assay, xanthine/xanthine oxidase; assay type: biochemical; conditions: [CytC] = 10 μM, pH = 7.8; for IC50: CytC assay, [xanthine] = 40 μM, [xanthine oxidase] = 0.0053 U/mL, phosphate buffer 50 mM; for Log (kcat): kcat(O2•−)=kCytC·[CytC]/IC50, kCytC=2.6×10^5 M^−1s^−1
Method: To reduce uncertainty about the actual active species involved in the reaction, the catalytic investigations were made with the isolated species. The ability to catalyze superoxide dismutation was assessed using the indirect cytochrome C-based assay originally introduced by McCord and Fridovich. In this kind of test, the presence of a catalyst with SOD activity, acting as a scavenger for O2^•− and generated via a xanthine/xanthine oxidase system, prevents the electron transfer to cytochrome C (Cyt C) to form […].
(§1) Catalytic measurement assays were conducted using a Varian Cary 100 spectrophotometer with a 3 mL quartz cuvette (1 cm path length) for evaluating SOD-like activity. For the assessment of peroxidase-mimicking activity, a Varian Cary 50 instrument and identical cuvettes were utilized. To monitor the CAT-like activity, a 25 mL vial, equipped with a septum for solution injection, was used as a reactor and connected to a pressure transducer.

[3] = CAT-like activity: O2 pressure from hydrogen peroxide dismutation; assay type: biochemical; set-up: Rmax: unit not given here; conditions: [catalyst] = 200 μM, [H2O2] = 20–30 mM in BBS 50 mM, pH = 7.8
Method: The studied catalase-like activity of the complexes was evaluated by measuring the pressure resulting from the oxygen produced during the dismutation of the hydrogen peroxide. For this analysis, a borate-based buffer system (BBS 50 mM, pH 7.8) was utilized to avoid the competitive binding of phosphate anions.
as §1, with “transducer. […]” for “transducer.”
To monitor the CAT-like activity, a 25 mL vial was used as a reactor, connected to a pressure transducer and
a septum for the injection.

[4] = UV–Vis monitoring of complex stability during H2O2 dismutation; assay type: physicochemical; conditions: complex 200 μM, H2O2 10 mM in BBS 50 mM pH 7.8
Excerpt: The reaction progression was monitored by UV–Vis to gather insights into the stability of the complexes during H2O2 dismutation (Figures S45–S48 in Supplementary Materials). Analyzing the spectra recorded for the systems derived from HL1 and HL5, it is possible to observe changes in the absorption bands. In the case of the mononuclear species containing HL1, the alteration in the absorption band takes place over a comparatively extended period, in agreement with the occurrence of the delay period previously noted. The intensity associated with the π→π * electronic transition progressively diminishes, coinciding with a rise in molecular oxygen generation. Such a trend implies structural reconfiguration within the coordination environment of the complex, which appears necessary to initiate the catalytic event. On the other hand, the characteristic absorption feature vanishes after 4 h as a result of the formation of radical species. The UV–Vis profile of the complex Cu(HL5)(ClO4)2 (Figure S46) undergoes a faster modification.
Figure S46: UV-Vis spectra of Cu(HL5)(ClO4)2 at time 0 (red) and after 7 h (light red). The colours variation represents an increment of 5 min from t=0 to t=15 min, of 15 min from t=15 to t= 45 min and 45 min from t= 45 to t=360 min.
Conditions: [Cu(HL5)(ClO4)2]= 200 uM, [H2O2]=10mM in BBS 50mM pH=7.8. Zoom: temporal trends compared to O2 (red) and Abs (light red) on the maximum absorption at 294 nm.
Figure S47: UV-Vis spectra of Cu2(L1)2(ClO4)2 at time 0 (blue) and after 24 hours (light blue). Every change of colors represents a temporal increase of 90 minutes. Conditions: [Cu2(L1)2(ClO4)2] = 200 µM, [H2O2] = 10 mM in BBS 50 mM, pH = 7.8. Zoom: temporal trends compared to O2 (blue) and Abs (light blue) on the maximum absorption at 288 nm.
Figure S48: UV-Vis spectra of Cu2(L5)2(ClO4)2 at time 0 (dark green) and after 24 hours (light green). Every change of colours represents a temporal increase of 90 minutes. Conditions: [Cu2(L5)2(ClO4)2] = 200 µM, [H2O2] = 10 mM in BBS 50 mM, pH = 7.8. […]

[5] = Peroxidase activity: morin oxidation with H2O2; assay type: biochemical; conditions: after 16 h with H2O2; [Morin] = 0.16 mM, [Catalyst] = 1.6 μM, [H2O2] = 0.01 M, PBS 50 mM, pH 7.8
Method: Since initial antioxidant evaluations were conducted without incorporating oxidizable substrates, it is therefore essential to assess the behavior of the complexes in the presence of organic substrates. To this aim, we employed two distinct categories of model substrate: morin and o-phenylenediamine (OPD). We evaluated the spectral changes during morin oxidation, i.e., absorbance decreases for the substrate (Figure 7 and Figures S50–S53 in the Supporting Materials) and increase for the 2,3-diaminephenazine (DAP), the product of the oxidative degradation of the OPD (Figures S55–S58 in the Supporting Materials).
Figure 7 Residual absorbance of morin at the maximum absorption (390 nm) after reaction of the complexes with H2O2 for 16 h. [Morin] = 0.16 mM, [Catalyst] = 1.6 μM, [H2O2] = 0.01 M, PBS buffer (50 mM), pH 7.8.
Peroxidase activity was evaluated via UV-Vis spectroscopy by monitoring the time-dependent absorbance changes of oxidized substrates in the presence of H₂O₂ and copper complexes. Two substrates were used: morin and o-phenylenediamine (OPD).
For morin, the oxidative degradation (Figure S49) was evidenced by a decrease in absorbance at 390 nm. […]
The reaction kinetics were monitored over 18 hours with spectra collected every 20 minutes (Figures S50–S53). […]
Figure S50: Absorbance variation of the morine, with the complex Cu(HL1)(ClO 4)2. […]

SMILES | ΔE [1] [V] | │ia/ic│ [1] | E1/2 [1] [V] | Epa [1] [V] | Epc [1] [V] | IC50 [2] [nM] | Log (kcat) [2] | Time (to maximum O2 production) [3] [min] | O2 generated ([3]; triplicate, ±10% error) [mmol/L] | time in which the π→π* absorbance feature fades / changes [4] | residual absorbance of morin (390 nm) [5] [%] | Rmax ([3]; triplicate, ±10% error)
COc1cccc(CN(Cc2ccccn2)Cc2ccccn2)c1O.[Cu+2].[O-][Cl+3]([O-])([O-])[O-].[O-][Cl+3]([O-])([O-])[O-] [Cu(HL5)(ClO4)2] | −0.106 | 0.52 | −0.149 | −0.096 | −0.202 | 1040 | 6.41 ^h | 1300 | 9.8 | approximately 60 min | 21 | –
COc1cccc(CN(Cc2ccccn2)Cc2ccccn2)c1[O-].COc1cccc(CN(Cc2ccccn2)Cc2ccccn2)c1[O-].[Cu+2].[Cu+2].[O-][Cl+3]([O-])([O-])[O-].[O-][Cl+3]([O-])([O-])[O-] [Cu2(L5)2(ClO4)2] | −0.081 | 0.90 | −0.179 | −0.138 | −0.219 | 1280 | 6.31 ^h | 950 | 7.7 | ≤ 90 min | 40 | 0.36
